Target: T1, hCCR4 (Chem5-hCCR4 cells) (Homo sapiens, UniProt P51679)
T1 sequence (P51679 1-360): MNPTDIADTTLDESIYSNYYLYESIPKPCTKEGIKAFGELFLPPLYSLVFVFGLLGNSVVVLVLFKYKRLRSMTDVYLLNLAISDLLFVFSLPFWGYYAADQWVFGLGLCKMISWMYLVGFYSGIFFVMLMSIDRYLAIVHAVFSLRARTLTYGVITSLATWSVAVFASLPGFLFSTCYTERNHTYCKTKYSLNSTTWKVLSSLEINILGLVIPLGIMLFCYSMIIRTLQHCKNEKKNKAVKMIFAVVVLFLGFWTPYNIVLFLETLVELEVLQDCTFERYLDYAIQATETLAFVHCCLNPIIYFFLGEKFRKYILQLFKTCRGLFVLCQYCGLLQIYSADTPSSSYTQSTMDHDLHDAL
Assay: Calcium flux assay (CCL22-stimulated, FLIPR Calcium 6 dye)
Assay type: cell-based
Conditions: Table 3, CCL22 1.5 nM, read-out: Potency (IC50)
Procedure: Calcium Flux Assay. Compounds were evaluated in a calcium flux assay substantially performed as follows. Chem5-hCCR4 cells (EMD Millipore, Hayward, CA; HTS009C) were cultured under standard conditions and frozen in aliquots of 10×10^6 cells/mL. The day prior to compound testing, a vial was rapidly thawed and pipetted into 20 mL media (DMEM+10% FBS+1% Pen-Strep+1% L-glutamine). Cells were harvested by centrifugation and re-suspended in fresh culture medium. 25 μL of cell suspension was seeded into 384-well plates (Corning, Tewksbury, MA; CellBind with black wall/clear bottom). The plates were centrifuged at 300 g for 10 seconds and incubated overnight at 37° C. and 5% CO2. The day of compound testing, media was removed from the plates and 25 μL serum free media was added to each well. Plates were returned to the incubator for 2 h. 25 μL assay buffer (Hank's balanced salt solution+20 mM HEPES pH 7.4) containing FLIPR Calcium 6 dye (Molecular Devices, Sunnyvale, CA; #R8191) and probenecid (2.5 mM) was added to each well and incubated at 37° C. and 5% CO2 for 2 h. Compounds in DMSO were added to the plates using an HP D300e digital dispenser, and all wells were normalized to contain 0.25 μL (0.5%) DMSO. Plates were incubated for 1 hour at 37° C. and 5% CO2. CCL22 (Peprotech; Rockyhill, NJ) was diluted in assay buffer containing 0.1% BSA to 7.5 nM (corresponding to 5×EC80 of 1.5 nM).
Assay plates and working solution of CCL22 were transferred to the FlexStation plate reader (Molecular Devices) at 37° C. for 5 min of equilibration. Fluorescence recordings at 485 excitation/525 emission were performed at 2.5 second intervals. At t=16 seconds, 12.5 μL of CCL22 solution was added to each well and reads continued for 30 seconds at 2.5 second intervals. The minimum fluorescence (Fmin) was calculated by averaging the reads prior to ligand addition and the change in fluorescence (ΔF) was calculated by subtracting the Fmin from the average of the reads following ligand addition. The response ΔF/Fmin was plotted as a function of the compound concentration and the IC50 values were determined by non-linear regression analysis using a 4-parameter fit in either PRISM software (GraphPad; La Jolla, CA) or Dotmatics Browser.

| SMILES | IC50 |
| --- | --- |
| C[C@@H](Nc1nc(N2CC([C@H]3CCCN([C@H]4C[C@](C)(C(=O)O)C4)C3)C2)nc2c1CCC2)c1ccc(Cl)cc1Cl [Example 20, (1R,3r)-3-((R)-3-(1-(4-(((R)-1-(2,4-dichlorophenyl)ethyl)amino)-6,7-dihydro-5H-cyclopenta[d]pyrimidin-2-yl)azetidin-3-yl)piperidin-1-yl)-1-methylcyclobutane-1-carboxylic acid] | < 100 nM |
| C[C@]1(C(=O)O)C[C@H](N2CCC[C@H](C3CN(c4ncc(Cl)c(NCc5ccc(Cl)cc5Cl)n4)C3)C2)C1 [Example 21, (1R,3r)-3-((R)-3-(1-(5-chloro-4-((2,4-dichlorobenzyl)amino)pyrimidin-2-yl)azetidin-3-yl)piperidin-1-yl)-1-methylcyclobutane-1-carboxylic acid] | > 500 nM |
| Cc1nc(N2CC([C@H]3CCCN([C@H]4C[C@](C)(C(=O)O)C4)C3)C2)nc(N[C@H](C)c2ccc(Cl)cc2Cl)c1C [Example 22, (1R,3r)-3-((R)-3-(1-(4-(((R)-1-(2,4-dichlorophenyl)ethyl)amino)-5,6-dimethylpyrimidin-2-yl)azetidin-3-yl)piperidin-1-yl)-1-methylcyclobutane-1-carboxylic acid] | < 100 nM |
| CC[C@]1(C(=O)O)C[C@H](N2CCC[C@H](C3CN(c4ncc(Cl)c(N[C@H](C)c5ccc(Cl)cc5Cl)n4)C3)C2)C1 [Example 23, (1R,3s)-3-((R)-3-(1-(5-chloro-4-(((R)-1-(2,4-dichlorophenyl)ethyl)amino)pyrimidin-2-yl)azetidin-3-yl)piperidin-1-yl)-1-ethylcyclobutane-1-carboxylic acid] | 100 to 500 nM |
| C[C@@H](Nc1nc(N2CC([C@H]3CCCN(CCO)C3)C2)nc2c1CCC2)c1ccc(Cl)cc1Cl [Example 24, 2-((R)-3-(1-(4-(((R)-1-(2,4-dichlorophenyl)ethyl)amino)-6,7-dihydro-5H-cyclopenta[d]pyrimidin-2-yl)azetidin-3-yl)piperidin-1-yl)ethan-1-ol] | 100 to 500 nM |
| C[C@@H](Nc1nc(N2CC([C@H]3CCCN([C@H]4C[C@@H](C(=O)O)C4)C3)C2)nc2ccccc12)c1ccc(Cl)cc1Cl [Example 25, (1S,3s)-3-((R)-3-(1-(4-(((R)-1-(2,4-dichlorophenyl)ethyl)amino)quinazolin-2-yl)azetidin-3-yl)piperidin-1-yl)cyclobutane-1-carboxylic acid] | < 100 nM |
| C[C@@H](Nc1nc(N2CC([C@H]3CCCN(CCO)C3)C2)nc2ccccc12)c1ccc(Cl)cc1Cl [Example 26, 2-((R)-3-(1-(4-(((R)-1-(2,4-dichlorophenyl)ethyl)amino)quinazolin-2-yl)azetidin-3-yl)piperidin-1-yl)ethan-1-ol] | < 100 nM |
| C[C@@H](Nc1nc(N2CC([C@H]3CCCN([C@H]4C[C@@](C)(C(=O)O)C4)C3)C2)nc2ccccc12)c1ccc(Cl)cc1Cl [Example 27, (1S,3s)-3-((R)-3-(1-(4-(((R)-1-(2,4-dichlorophenyl)ethyl)amino)quinazolin-2-yl)azetidin-3-yl)piperidin-1-yl)-1-methylcyclobutane-1-carboxylic acid] | < 100 nM |
| C[C@@H](Nc1nc(N2CC([C@H]3CCCN([C@H]4C[C@](C)(C(=O)O)C4)C3)C2)nc2ccsc12)c1ccc(Cl)cc1Cl [Example 28, (1R,3r)-3-((R)-3-(1-(4-(((R)-1-(2,4-dichlorophenyl)ethyl)amino)thieno[3,2-d]pyrimidin-2-yl)azetidin-3-yl)piperidin-1-yl)-1-methylcyclobutane-1-carboxylic acid] | < 100 nM |
| C[C@@H](Nc1nc(N2CC([C@H]3CCCN([C@H]4C[C@](C)(C(=O)O)C4)C3)C2)nc2sccc12)c1ccc(Cl)cc1Cl [Example 29, (1R,3r)-3-((R)-3-(1-(4-(((R)-1-(2,4-dichlorophenyl)ethyl)amino)thieno[2,3-d]pyrimidin-2-yl)azetidin-3-yl)piperidin-1-yl)-1-methylcyclobutane-1-carboxylic acid] | < 100 nM |
| Cc1nc(N2CC([C@H]3CCCN([C@H]4C[C@@H](C(=O)O)C4)C3)C2)nc(N[C@H](C)c2ccc(Cl)cc2Cl)c1C [Example 30, (1S,3s)-3-((R)-3-(1-(4-(((R)-1-(2,4-dichlorophenyl)ethyl)amino)-5,6-dimethylpyrimidin-2-yl)azetidin-3-yl)piperidin-1-yl)cyclobutane-1-carboxylic acid] | 100 to 500 nM |
| C[C@@H](Nc1nc(N2CC([C@H]3CCCN([C@H]4C[C@@H](C(=O)O)C4)C3)C2)nc2ccsc12)c1ccc(Cl)cc1Cl [Example 31, (1S,3s)-3-((R)-3-(1-(4-(((R)-1-(2,4-dichlorophenyl)ethyl)amino)thieno[3,2-d]pyrimidin-2-yl)azetidin-3-yl)piperidin-1-yl)cyclobutane-1-carboxylic acid] | < 100 nM |
| CCOC(=O)c1cnc(N2CC([C@H]3CCCN(CCO)C3)C2)nc1N[C@H](C)c1ccc(Cl)cc1Cl [Example 32, ethyl 4-(((R)-1-(2,4-dichlorophenyl)ethyl)amino)-2-(3-((R)-1-(2-hydroxyethyl)piperidin-3-yl)azetidin-1-yl)pyrimidine-5-carboxylate] | < 100 nM |
| C[C@@H](Nc1nc(N2CC([C@H]3CCCN(CCO)C3)C2)ncc1C(=O)O)c1ccc(Cl)cc1Cl [Example 33, 4-(((R)-1-(2,4-dichlorophenyl)ethyl)amino)-2-(3-((R)-1-(2-hydroxyethyl)piperidin-3-yl)azetidin-1-yl)pyrimidine-5-carboxylic acid] | > 500 nM |
| C[C@@H](Nc1nc(N2CC(C3CCCN(CCN4CCCC4=O)C3C(=O)O)C2)ncc1Cl)c1ccc(Cl)cc1Cl (stereo partly drawn) [Example 34, 3-(1-(5-chloro-4-(((R)-1-(2,4-dichlorophenyl)ethyl)amino)pyrimidin-2-yl)azetidin-3-yl)-1-(2-(2-oxopyrrolidin-1-yl)ethyl)piperidine-2-carboxylic acid] | 100 to 500 nM |
| C[C@@H](Nc1nc(N2CC([C@H]3CCCN([C@H]4C[C@](C)(C(=O)O)C4)C3)C2)ncc1C(C)(C)O)c1ccc(Cl)cc1Cl [Example 35, (1R,3r)-3-((R)-3-(1-(4-(((R)-1-(2,4-dichlorophenyl)ethyl)amino)-5-(2-hydroxypropan-2-yl)pyrimidin-2-yl)azetidin-3-yl)piperidin-1-yl)-1-methylcyclobutane-1-carboxylic acid] | < 100 nM |
| Cc1cnc(N2CC([C@H]3CCCN([C@H]4C[C@](C)(C(=O)O)C4)C3)C2)nc1N[C@H](C)c1ccc(Cl)cc1Cl [Example 36, (1R,3r)-3-((R)-3-(1-(4-(((R)-1-(2,4-dichlorophenyl)ethyl)amino)-5-methylpyrimidin-2-yl)azetidin-3-yl)piperidin-1-yl)-1-methylcyclobutane-1-carboxylic acid] | 100 to 500 nM |
| C[C@@H](Nc1nc(N2CC([C@H]3CCCN([C@H]4C[C@](C)(C(=O)O)C4)C3)C2)nc(C(F)(F)F)c1Cl)c1ccc(Cl)cc1Cl [Example 37, (1R,3r)-3-((R)-3-(1-(5-chloro-4-(((R)-1-(2,4-dichlorophenyl)ethyl)amino)-6-(trifluoromethyl)pyrimidin-2-yl)azetidin-3-yl)piperidin-1-yl)-1-methylcyclobutane-1-carboxylic acid] | < 100 nM |
| Cc1nc(N2CC([C@H]3CCCN([C@H]4C[C@](C)(C(=O)O)C4)C3)C2)nc(N[C@H](C)c2ccc(Cl)cc2Cl)c1Cl [Example 38, (1R,3r)-3-((R)-3-(1-(5-chloro-4-(((R)-1-(2,4-dichlorophenyl)ethyl)amino)-6-methylpyrimidin-2-yl)azetidin-3-yl)piperidin-1-yl)-1-methylcyclobutane-1-carboxylic acid] | < 100 nM |
| C[C@@H](Nc1nc(N2CC([C@H]3CCCN([C@H]4C[C@](C)(C(=O)O)C4)C3)C2)ncc1C(F)(F)F)c1ccc(Cl)cc1Cl [Example 39, (1R,3r)-3-((R)-3-(1-(4-(((R)-1-(2,4-dichlorophenyl)ethyl)amino)-5-(trifluoromethyl)pyrimidin-2-yl)azetidin-3-yl)piperidin-1-yl)-1-methylcyclobutane-1-carboxylic acid] | < 100 nM |
